Measurements taken from publication PMC7080406 (eLife, 2020).
Where “and” joins values, the source holds several entries; their conditions need not be identical. Equal entries are not always repeated. Entries after “also recorded” stand apart in the source; their conditions may differ. Where two headings read alike, the source gives them in different places.

Experiments:
[1] = biological target: T1, MT1 (Homo sapiens, UniProt P48039); assay: GloSensor Gi/o-mediated cAMP production inhibition assay, MT1; assay type: cell-based; conditions: for EC50: Gi/o mediated; for MT1 LE: ligand efficiency (based on EC50); for Emax: read-out: MT1 Emax ± SEM
T1 construct: expressed in transfected cells; host or cells: HEK293T (ATCC CRL-11268), transient transfection
T1 sequence (P48039 whole entry): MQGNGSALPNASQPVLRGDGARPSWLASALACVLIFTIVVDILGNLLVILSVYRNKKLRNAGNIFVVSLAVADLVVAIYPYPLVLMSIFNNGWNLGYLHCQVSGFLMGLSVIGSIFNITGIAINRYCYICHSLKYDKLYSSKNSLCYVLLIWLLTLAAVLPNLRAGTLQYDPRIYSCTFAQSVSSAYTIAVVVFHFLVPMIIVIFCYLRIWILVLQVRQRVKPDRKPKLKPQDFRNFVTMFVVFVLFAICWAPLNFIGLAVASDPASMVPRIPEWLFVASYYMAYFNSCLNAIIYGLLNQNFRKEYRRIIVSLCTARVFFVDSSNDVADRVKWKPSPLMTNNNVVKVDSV
Description: (§1) Briefly, HEK293 T cells (as above) were transiently co-transfected with receptor (MT1 or MT2) and GloSensor cAMP (Promega) plasmids overnight, plated in Poly-L-Lysine coated 384-well white clear bottom plates in DMEM + 1% dialyzed FBS. Cells were used for assays at a minimum of 6 hr after plating. Culture medium was first removed and cells were stimulated with drugs in assay buffer (1x HBSS, 20 mM HEPES, 1 mg/ml BSA, 0.1 mg/ml ascorbic acid, pH 7.4) for 15 min at room temperature (this and all the following steps), followed by addition of a mixture of isoproterenol (final of 100 nM) and luciferin (final of 1 mM) for Gi/o-cAMP production inhibition assays and luciferin (final of 1 mM) for Gs-cAMP production assays. The plates were counted for luminescence after 25 min in a luminescence plate reader. Results were analyzed using GraphPad Prism 7.0.

[2] = biological target: T1, MT1; assay: [3H]melatonin competition radioligand binding, MT1 membranes; conditions: read-out: MT1 pKi ± SEM (converted)
Description: (§2) The Radioligand binding assays were conducted by the NIMH Psychoactive Drug Screening Program (PDSP). The NIMH PDSP is directed by Bryan L. Roth, MD, PhD, at the University of North Carolina at Chapel Hill, North Carolina, and Program Officer Jamie Driscoll at NIMH, Bethesda, MD. Binding assay procedures and protocols are also available online at http://pdspdb.unc.edu/pdspWeb/?site=assays. […] Assay plates were sealed and incubated for 4 hr at 37°C in a humidified incubator until harvesting. Plates were harvested using vacuum filtration onto 0.3% polyethyleneimine pre-soaked 96-well Filtermat A (PerkinElmer) and washed three times with cold wash buffer (50 mM Tris, pH 7.4). Filters were dried and melted with a scintillation cocktail (Meltilex, PerkinElmer). Radioactivity was counted using a Wallac TriLux Microbeta counter (PerkinElmer). Results were analyzed using GraphPad Prism 7.0.

[3] = biological target: T2, MT2 (Homo sapiens, UniProt P49286); assay: GloSensor Gi/o-mediated cAMP production inhibition assay, MT2; assay type: cell-based; parameters: expressed in transfected cells; host or cells: HEK293T (ATCC CRL-11268), transient transfection; conditions: for MT2/MT1 Selectivity: Antilog (log(Emax/EC50) MT2 - log (Emax/EC50) MT1), values below 1 = MT1 selectivity; for EC50: Gi/o mediated, read-out: MT2 EC50; for Emax: MT2, activation compared to melatonin, read-out: MT2 Emax ± SEM; for MT2 LE: ligand efficiency (based on EC50)
T2 sequence (P49286 1-362): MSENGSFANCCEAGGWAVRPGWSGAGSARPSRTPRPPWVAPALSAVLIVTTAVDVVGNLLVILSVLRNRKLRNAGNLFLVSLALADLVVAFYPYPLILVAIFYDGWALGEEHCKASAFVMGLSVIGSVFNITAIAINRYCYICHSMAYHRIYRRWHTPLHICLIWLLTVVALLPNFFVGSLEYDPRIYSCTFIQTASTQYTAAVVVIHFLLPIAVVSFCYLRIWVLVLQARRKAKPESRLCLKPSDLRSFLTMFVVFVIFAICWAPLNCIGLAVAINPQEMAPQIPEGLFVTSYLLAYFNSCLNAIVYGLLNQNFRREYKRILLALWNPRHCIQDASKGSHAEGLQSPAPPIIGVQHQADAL
Description: as §1

[4] = biological target: T2, MT2; assay: [3H]melatonin competition radioligand binding, MT2 membranes; parameters: expressed in transfected cells; host or cells: HEK293T (ATCC CRL-11268), transient transfection; conditions: read-out: MT2 pKi ± SEM (converted)
Description: as §2

[5] = test system: panel of 47 common drug targets (GPCRs, ion-channels and transporters); assay: Binding profiling at a panel of 47 common drug targets; conditions: final concentration of 10 μM
Description: as §2, with “http://pdspdb.unc.edu/pdspWeb/?site=assays. All the radioligand binding assays were performed using membranes prepared from transiently transfected HEK293T cells (purchased from ATCC, CRL-11268, authenticated by the supplier using morphology, growth characteristics, and STR profiling and certified mycoplasma-free) and in standard binding buffer (50 mM Tris, 10 mM MgCl2, 0.1 mM EDTA, 0.1% BSA, 0.01% ascorbic acid, pH 7.4) as recently reported ([Stauch et al., 2019]).” for “http://pdspdb.unc.edu/pdspWeb/?site=assays.”

[6] = biological target: T3, MT1 Y281F mutant receptor (Homo sapiens, UniProt P48039, Y281F); assay: Tango β-arrestin recruitment assay, MT1 Y281F mutant; assay type: cell-based; conditions: normalized individually (basal 0%, maximum 100%); mean ± SEM, minimum of 3 assays; read-out: pEC50, Tango, MT1 Y281F (converted)
T3 construct: expressed in transfected cells; host or cells: HTLA cells (HEKT based)
T3 sequence (P48039 whole entry Y281F): as the sequence (P48039 whole entry) above, with Y281F counted along it
Description: (§3) In brief, HTLA cells were transiently transfected with receptor TANGO DNA constructs overnight in DMEM with 10% FBS. Transfected cells were then plated into poly-L-Lys coated 384-well plates using DMEM supplemented with 1% dialyzed FBS. After 6 hr incubation, drug dilutions, prepared in DMEM with 1% dFBS, were added for incubation overnight (16–20 hr). Medium and drug solutions were removed, Bright-Glo reagent (20 uL/well) was added for luminescence counting 20 min later. Results were analyzed in GraphPad Prism 7.0.

[7] = biological target: T4, MT1 wildtype (WT) (Homo sapiens, UniProt P48039); assay: Tango β-arrestin recruitment assay, MT1 wildtype; assay type: cell-based
T4 construct: host or cells: HTLA cells (HEKT based)
T4 sequence (P48039 whole entry): as the sequence (P48039 whole entry) above
Description: as §3

[8] = biological target: T5, MT1 N162Q mutant receptor (Homo sapiens, UniProt P48039, N162Q); assay: Tango β-arrestin recruitment assay, MT1 N162Q mutant; assay type: cell-based
T5 construct: expressed in transfected cells; host or cells: HTLA cells (HEKT based)
T5 sequence (P48039 whole entry N162Q): as the sequence (P48039 whole entry) above, with N162Q counted along it
Description: as §3

[9] = SEM, N = 3, read-out: MT1 pEC50 ± SEM (converted)

| EC50 [1, 9] | EC50 ([1]; read-out: MT1 EC50) | MT1 LE [1] | Emax [1] | Ki [2] | MT2/MT1 Selectivity [3] | EC50 [3] | Emax [3] | MT2 LE [3] | Ki [4] | EC50 ([1]; text value, read-out: MT1 EC50) | binding at panel of 47 common drug targets [5] | EC50 [6] | EC50 ([7]; normalized individually (basal 0%, maximum 100%), mean ± SEM, minimum of 3 assays, read-out: pEC50, Tango, MT1 WT (converted)) | β-arrestin activity at MT1 ([7]; result in words) | increase of potency, MT1 N162Q versus WT ([8]; Tango) | EC50 ([8]; normalized individually (basal 0%, maximum 100%), mean ± SEM, minimum of 3 assays, read-out: pEC50, Tango, MT1 N162Q (converted)) | Compound | G-protein (Gi) signaling at MT1 ([1]; result in words) |
| --- | --- | --- | --- | --- | --- | --- | --- | --- | --- | --- | --- | --- | --- | --- | --- | --- | --- | --- |
| 69.2 nM | 57.5 nM | 0.56 kcal/mol per non-hydrogen atom | 96.9 ± 5.3% | 3800 nM | 2.7 fold | 20.4 nM | 91.7 ± 3% | 0.60 kcal/mol per non-hydrogen atom | 2750 nM |  |  |  |  |  |  |  | COc1cccc([C@@H]2C[C@H]2CNC(=O)C(N)=O)c1 (racemic) [Compound 23, rac-N'-{[(1R,2R)-2-(3-methoxyphenyl)cyclopropyl]methyl}ethanediamide] |  |
| 1910 nM | 1780 nM | 0.47 kcal/mol per non-hydrogen atom | 87.5 ± 9.1% | 14500 nM | 10.3 fold | 132 nM | < 70% | 0.57 kcal/mol per non-hydrogen atom | 4270 nM |  |  |  |  |  |  |  | COc1cccc(CNC(=O)c2ccno2)c1 [Compound 57, N-[(3-methoxyphenyl)methyl]-1,2-oxazole-5-carboxamide] |  |
| 148 nM | 144 nM | 0.53 kcal/mol per non-hydrogen atom | 87.5 ± 4.5% | 6030 nM | 3.3 fold | 34.7 nM | < 70% | 0.58 kcal/mol per non-hydrogen atom | 2450 nM |  |  |  |  |  |  |  | CC(=O)NCC1CCCCN1c1ccnc(C)n1 (stereo not drawn) [Compound 29, N-{[1-(2-methylpyrimidin-4-yl)piperidin-2-yl]methyl}acetamide] |  |
| 871 nM | 741 nM | 0.54 kcal/mol per non-hydrogen atom | 82.8 ± 4.3% | 9330 nM | 36.9 fold | 18.2 nM | 75 ± 3.7% | 0.68 kcal/mol per non-hydrogen atom | 2750 nM |  |  |  |  |  |  |  | COC(=O)c1[nH]c2cc(OC)ccc2c1N [Compound 54] |  |
|  | 8710 nM | 0.44 kcal/mol per non-hydrogen atom | 90.6 ± 14.3% | 28800 nM | 17 fold and 16.9 fold | 427 nM | 75 ± 7.4% | 0.56 kcal/mol per non-hydrogen atom | 5500 nM |  |  |  |  |  |  |  | CC(=O)c1sc2nc3c(cc2c1N)CCC3 [Compound 45] |  |
|  | 2340 nM | 0.46 kcal/mol per non-hydrogen atom | 112 ± 5.2% | 26300 nM | 187 fold and 186.9 fold | 10 nM and 10.2 nM | 91.7 ± 3% | 0.66 kcal/mol per non-hydrogen atom | 1230 nM | 2340 nM |  |  |  |  |  |  | NC(=O)c1cc(C(=O)c2ccccc2Cl)c[nH]1 [Compound 47] |  |
|  | > 30000 nM |  |  | 8510 nM | >1000.0 fold | 141 nM | 61.1 ± 9.1% | 0.53 kcal/mol per non-hydrogen atom | 3550 nM |  | did not show any substantial binding | 11700 nM | 4170 nM | substantial β-arrestin activity | 2 fold | 2240 nM | COc1cccc(CNc2nc(C3CC3)no2)c1 [Compound 37, 3-cyclopropyl-N-[(3-methoxyphenyl)methyl]-1,2,4-oxadiazol-5-amine] | devoid of Gi signaling; also recorded: completely lacks G-protein signaling |
|  |  |  | 100 ± 5.6% |  |  |  |  |  |  |  |  |  |  |  |  |  | COc1ccc2[nH]cc(CCNC(C)=O)c2c1 [Melatonin, N-acetyl-5-methoxytryptamine, reference compound] |  |
| 40700 nM | 42700 nM | 0.36 kcal/mol per non-hydrogen atom | 54.1 ± 10% | 47900 nM | 875.9 fold | 52.5 nM | < 70% | 0.60 kcal/mol per non-hydrogen atom | 3240 nM |  |  |  |  |  |  |  | Nc1cc(=O)[nH]c(=S)n1CCc1ccccc1 [Compound 62] |  |
|  | 57500 nM | 0.33 kcal/mol per non-hydrogen atom | 72.8 ± 4.7% | 64600 nM | 267 fold and 267.2 fold | 263 nM | 88.9 ± 6.3% | 0.51 kcal/mol per non-hydrogen atom | 11200 nM |  |  |  |  |  |  |  | COc1cccc(Cn2c(N)cc(=O)[nH]c2=O)c1 [Compound 44, 6-amino-1-[(3-methoxyphenyl)methyl]-1,2,3,4-tetrahydropyrimidine-2,4-dione] |  |
